Results from PMC9049077, “Unveiling the anti-cancer mechanism for half-sandwich and cyclometalated Ir(III)-based complexes with functionalized α-lipoic acid” (RSC Advances, 2020).
Where two headings read alike, the source gives them in different places.

Columns and labels:
[1] = tested on: A549 cells (human lung carcinoma); test: MTT cytotoxicity assay, A549; format: cell-based
Procedure: (§1) The α-lipoic acid (LA) and the functionalized N^∧N-LA ligand were also evaluated for comparison. […]
(§2) Cell lines and culture conditions
(§3) A549, A549R, MCF-7, A2780, HeLa and LO2 cells were obtained from Experimental Animal Center of Sun Yat-Sen University (Guangzhou, China). Cells were routinely cultured in DMEM (Dulbecco’s modified Eagle’s medium, Gibco BRL) or RPMI 1640 (Roswell Park Memorial Institute medium 1640, Gibco BRL) medium containing 10% FBS (fetal bovine serum, Gibco BRL), 100 μg/mL streptomycin, and 100 U/mL penicillin (Gibco BRL). The cells were cultured in tissue culture flasks in a humidified incubator (BB 150 CO2 incubator, Thermo Fisher Scientific, USA), which provided an atmosphere of 5% CO2 and 95% air at a constant temperature of 37 °C. Cisplatin-resistant A549R […]
(§4) cells were cultured in RPMI 1640 with additional cisplatin to maintain the drug resistance.
(§5) Cytotoxicity assay (MTT assay)
(§6) The cytotoxicity of LA, N^N-LA and complexes synthesized towards various cancer cell lines was determined by MTT assay. After plating 5000 cells per well in 96-well plates, the cells were pre-incubated in drug-free media for 24 h at 37 °C to grow to confluence. The complexes were dissolved in DMSO (1%, v/v) just before the experiments, and diluted with fresh media immediately. Then, cells […]
(§7) that, 20 μL of MTT solution (5 mg/mL) was added to each well, and the plates were incubated for an additional 4 h. The medium was carefully removed and 150 μL DMSO was added per well. The plates were incubated for 10 min with shaking. The absorbance at 595 nm was measured using a microplate reader (LabServ K3, Part of Thermo Fisher Scientific, USA). Each well was triplicated to gain the mean values. IC 50 values quoted are mean ± SEM. […]

[2] = tested on: HeLa cells (human cervical carcinoma); test: MTT cytotoxicity assay, HeLa; format: cell-based
Procedure: as §1, §2, §3, §4, §5, §6, §7

[3] = tested on: A549R cells (cisplatin-resistant A549); test: MTT cytotoxicity assay, A549R; format: cell-based, human
Procedure: as §1, §2, §3, §4, §5
(§8) The cytotoxicity of LA, N^N-LA and complexes synthesized towards various cancer cell lines was determined by MTT assay. After plating 5000 cells per well in 96-well plates, the cells were pre-incubated in drug-free media for 24 h at 37 °C to grow to confluence. The complexes were dissolved in DMSO (1%, v/v) just before the experiments, and diluted with fresh media immediately. Then, cells were incubated with a series of different concentrations of the tested complexes for 44 h at 37 °C. After that, 20 μL of MTT solution (5 mg/mL) was added to each well, and the plates were incubated for an additional 4 h. The medium was carefully removed and 150 μL DMSO was added per well. The plates were incubated for 10 min with shaking. The absorbance at 595 nm was measured using a microplate reader (LabServ K3, Part of Thermo Fisher Scientific, USA). Each well was triplicated to gain the mean values. IC 50 values quoted are mean ± SEM. […]

[4] = tested on: A2780 cells (epithelial ovarian carcinoma); test: MTT cytotoxicity assay, A2780; format: cell-based
Procedure: as §1, §2, §3, §4, §5, §8

[5] = tested on: MCF-7 cells (human breast carcinoma); test: MTT cytotoxicity assay, MCF-7; format: cell-based
Procedure: as §1, §2, §3, §4, §5, §8

[6] = tested on: LO2 cells (human normal liver); test: MTT cytotoxicity assay, LO2; format: cell-based
Procedure: as §1, §2, §3, §4, §5, §8

tested cancer cell lines = test: MTT cytotoxicity assay, summary over the tested cell lines; format: cell-based; conditions: Homo sapiens, 48 h, read-out: IC50 over all tested cancer cell lines
Procedure: as §1, §2, §3, §4, §5
The cytotoxicity of LA, N^N-LA and complexes synthesized towards various cancer cell lines was determined by MTT assay. After plating 5000 cells per well in 96-well plates, the cells were pre-incubated in drug-free media for 24 h at 37 °C to grow to confluence. […] The absorbance at 595 nm was measured using a microplate reader (LabServ K3, Part of Thermo Fisher Scientific, USA). […]

[7] = tested on: MCF-7 cells (human breast carcinoma); test: MTT cytotoxicity assay, MCF-7; format: cell-based; conditions: 24 h incubation
[8] = tested on: HeLa cells (human cervical carcinoma); parameters: method as in earlier work; conditions: 24 h incubation; ref 29 (supplementary reference 9); cited from earlier work
[9] = tested on: MCF-7 cells (human breast carcinoma); parameters: method as in earlier work; conditions: 24 h incubation; ref 29 (supplementary reference 9); cited from earlier work
[10] = tested on: A549 cells (human lung carcinoma); parameters: method as in earlier work; conditions: 24 h incubation; ref 29 (supplementary reference 9); cited from earlier work
[11] = reported value; cited from earlier work
A549 cells = conditions: cited from earlier work
[12] = Homo sapiens, A549, 48 h incubation

Work on Cc1ccnc(-c2cc(CNC(=O)CCCCC3CCSS3)ccn2)c1 (stereo not drawn) [N^∧N-LA] yielded an IC50 ([1]; 48 h incubation) of over 200 µM, an IC50 ([2]; 48 h incubation) of 67.5 ± 5 µM and an IC50 ([3]; 48 h incubation) of over 200 µM. It also gave an IC50 ([4]; 48 h incubation) of 84.5 ± 4.1 µM, an IC50 ([5]; 48 h incubation) of 139 ± 2.2 µM and an IC50 ([6]; 48 h incubation) of 96 ± 6.7 µM.
O=C(O)CCCCC1CCSS1 (stereo not drawn) [LA, α-lipoic acid] showed an IC50 (tested cancer cell lines) of over 200 µM, an IC50 [1, 12] of over 200 µM and an IC50 ([2]; Homo sapiens, HeLa, 48 h incubation) of over 200 µM. It also gave an IC50 [3, 12] of over 200 µM, an IC50 ([4]; Homo sapiens, A2780, 48 h incubation) of over 200 µM and an IC50 ([5]; Homo sapiens, MCF7, 48 h incubation) of over 200 µM. It also gave an IC50 ([6]; Homo sapiens, L02, 48 h incubation) of over 200 µM.
For N.N.[Cl][Pt][Cl] [cis-Pt, cisplatin, reference compound], the IC50 [7] was 23.5 ± 0.82 µM, the IC50 ([1]; 24 h incubation) was 22.4 ± 1.5 µM and the IC50 ([1]; 48 h incubation) was 10.5 ± 0.63 µM. The IC50 ([2]; 24 h incubation) was 17.9 ± 0.47 µM, the IC50 ([2]; 48 h incubation) was 7.59 ± 0.46 µM and the IC50 ([3]; 48 h incubation) was 17.9 ± 0.77 µM. The IC50 [8] was 20.2 ± 1.8 µM, the IC50 [9] was 31.4 ± 3 µM and the IC50 ([4]; 48 h incubation) was 4.32 ± 0.25 µM. The IC50 ([5]; 48 h incubation) was 8.7 ± 0.57 µM, the IC50 [10] was 38.6 ± 0.9 µM and the IC50 ([6]; 48 h incubation) was 3.97 ± 0.25 µM.
Cc1ccnc(-c2cc(CN)ccn2)c1.F[P-](F)(F)(F)(F)F.[Ir+3].[c-]1ccccc1-c1ccccn1.[c-]1ccccc1-c1ccccn1 [Ir-NH2, [Ir(C^∧N)2(N^∧N-NH2)]PF6] showed an IC50 ([1]; 48 h incubation) of 11.2 ± 0.65 µM, an IC50 ([2]; 48 h incubation) of 21 ± 0.95 µM and an IC50 ([3]; 48 h incubation) of 19 ± 0.59 µM. For the same compound, the IC50 ([4]; 48 h incubation) was 8.08 ± 0.2 µM, the IC50 ([5]; 48 h incubation) was 11.6 ± 0.48 µM and the IC50 ([6]; 48 h incubation) was 8.97 ± 0.55 µM.
In the case of C(=NC(c1ccccc1)(c1ccccc1)c1ccccc1)c1ccccn1.Cc1c(C)c(C)[c-](C)c1C.F[P-](F)(F)(F)(F)F.[Cl-].[Ir+3] [[(η^5-Cp*)Ir(N^∧N)Cl]PF6, [(η^5-Cp*)Ir(N^∧N)Cl]PF6 (N^∧N = (triphenylmethyl)(pyridine-2-ylmethylene)amine)], the Hydrolysis rate constant [11] is given as 0.0084 min⁻¹ and the “Cellular uptake in A549 cells” value (A549 cells) is given as 4.5 ng per 10^6 cells.
